15 molecules from patent US20240409585A1, “MACROCYCLIC IMMUNOMODULATORS” (priority 2021, published 2024) can be followed below.

Bridge positions count the residues as written; N and C are the ends. Square brackets hold non-standard residues; d marks the D form. Peptide text beside a SMILES is read from it. * marks the point of attachment. ξ: configuration not given here. Phe(4-CONH2) = NC(=O)c1ccc(C[C@H](N)C(=O)O)cc1; Phe(4-COOH) = N[C@@H](Cc1ccc(C(=O)O)cc1)C(=O)O; dPhe(4-CN) = N#Cc1ccc(C[C@@H](N)C(=O)O)cc1; Bip = N[C@@H](Cc1ccc(-c2ccccc2)cc1)C(=O)O; Phe(3-Cl) = N[C@@H](Cc1cccc(Cl)c1)C(=O)O; Phe(3-Me) = Cc1cccc(C[C@H](N)C(=O)O)c1; 1Nal = N[C@@H](Cc1cccc2ccccc12)C(=O)O; Dopa = N[C@@H](Cc1ccc(O)c(O)c1)C(=O)O; Val(3-OH) = CC(C)(O)[C@H](N)C(=O)O; 4Pal = N[C@@H](Cc1ccncc1)C(=O)O; Cha = N[C@@H](CC1CCCCC1)C(=O)O; Cit = NC(=O)NCCC[C@H](N)C(=O)O; Ile(3ξ) = CCC(C)[C@H](N)C(=O)O; Thr(3ξ) = CC(O)[C@H](N)C(=O)O; Carboxymethyl = O=C(O)C*; NMeA = CN[C@@H](C)C(=O)O; Orn = NCCC[C@H](N)C(=O)O; Dab = NCC[C@H](N)C(=O)O; Nva = CCC[C@H](N)C(=O)O; Dap = NC[C@H](N)C(=O)O

For the assay, the target named is T1, PE-labeled human PD-L1-Ig binding to Jurkat cell line over-expressing human PD-1 (Jurkat-PD-1) (Homo sapiens, UniProt Q15116).
T1 construct: expressed in transfected cells; host or cells: Jurkat
Briefly: Jurkat-PD-1 Cell Binding High-Content Screening Assay (CBA): Method 1. Particulars: Jurkat-hPD-1 cells, PE-labeled PD-L1-Ig 20 nM final; read-out: Jurkat HPDL1 PD1 IC50 (uM) (Method 1).

T1 sequence (Q15116 25-288): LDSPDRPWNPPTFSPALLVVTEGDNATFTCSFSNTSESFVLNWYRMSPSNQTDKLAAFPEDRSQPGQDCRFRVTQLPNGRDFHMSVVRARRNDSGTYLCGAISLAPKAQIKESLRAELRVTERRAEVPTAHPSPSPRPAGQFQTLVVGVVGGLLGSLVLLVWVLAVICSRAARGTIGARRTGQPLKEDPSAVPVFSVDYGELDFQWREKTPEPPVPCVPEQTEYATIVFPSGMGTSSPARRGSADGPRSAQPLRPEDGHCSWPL

In the case of `CC(C)C[C@H]1NC(=O)[C@H](C)N(C)C(=O)[C@H](Cc2ccc(C(=O)O)cc2)NC(=O)[C@H](Cc2ccc(-c3ccccc3)cc2)NC(=O)[C@H](CCC(N)=O)NC(=O)[C@H](Cc2c[nH]c3ccccc23)NC(=O)[C@H](CC(=O)O)NC(=O)[C@H](Cc2ccc(OCC(=O)O)cc2)NC(=O)[C@H](Cc2ccc(OCC(=O)O)cc2)NC(=O)CSC[C@@H](C(=O)N[C@@H](CO)C(N)=O)NC(=O)[C@H](CCC(=O)O)NC(=O)[C@H](C(C)(C)O)NC(=O)[C@H](CC2CCCCC2)NC(=O)[C@H](CCN)NC1=O` [Compound 2198] ({CH2CO}-Y(Carboxymethyl)Y(Carboxymethyl)DWQ[Bip][Phe(4-COOH)][NMeA][dL][Dab][Cha][Val(3-OH)]ECS-NH2; thioether N-14), the IC50 came to 0.11 µM.
To `CC(C)C[C@@H]1NC(=O)[C@H](CCCNC(=N)N)NC(=O)[C@@H](Cc2ccc(C#N)cc2)NC(=O)[C@H](C)N(C)C(=O)[C@H](CCCNC(=N)N)NC(=O)[C@H](Cc2ccc(-c3ccccc3)cc2)NC(=O)[C@H](C(C)C)NC(=O)[C@H](Cc2c[nH]c3ccccc23)NC(=O)[C@H](CC(=O)O)NC(=O)[C@H](Cc2ccc(O)cc2)NC(=O)[C@H](Cc2ccccc2)NC(=O)CSC[C@@H](C(=O)N[C@@H](C)C(N)=O)NC(=O)[C@H]([C@@H](C)O)NC(=O)[C@H](C(C)C)NC1=O` [Compound 1107] ({CH2CO}-FYDWV[Bip]R[NMeA][dPhe(4-CN)]RLVTCA-NH2; thioether N-14) belongs 0.07 µM.
As to `CC(C)C[C@@H]1NC(=O)[C@H](CCN)NC(=O)[C@@H](CC(C)C)NC(=O)[C@H](C)N(C)C(=O)[C@H](C(C)C)NC(=O)[C@H](Cc2ccc(-c3ccccc3)cc2)NC(=O)[C@H](C(C)C)NC(=O)[C@H](Cc2c[nH]c3ccccc23)NC(=O)[C@H](CC(=O)O)NC(=O)[C@H](Cc2ccc(O)cc2)NC(=O)[C@H](CN)NC(=O)CSC[C@@H](C(=O)N[C@@H](C)C(N)=O)NC(=O)[C@H]([C@@H](C)O)NC(=O)[C@H](C(C)C)NC1=O` [Compound 1360] ({CH2CO}-[Dap]YDWV[Bip]V[NMeA][dL][Dab]LVTCA-NH2; thioether N-14), the IC50 was found to be 0.02 µM.
In the case of `CCC(C)[C@@H]1NC(=O)[C@H](Cc2ccc(-c3ccccc3)cc2)NC(=O)[C@H](C(C)C)NC(=O)[C@H](Cc2c[nH]c3ccccc23)NC(=O)[C@H](CC(=O)O)NC(=O)[C@H](Cc2ccc(O)cc2)NC(=O)[C@H](CC(N)=O)NC(=O)CSC[C@@H](C(=O)N[C@@H](C)C(N)=O)NC(=O)[C@H](C(C)O)NC(=O)[C@H](C(C)C)NC(=O)[C@H](CC2CCCCC2)NC(=O)[C@H](CCN)NC(=O)[C@@H](CC(C)C)NC(=O)[C@H](C)N(C)C1=O` (stereo partly drawn) [Compound 2061] ({CH2CO}-NYDWV[Bip][Ile(3ξ)][NMeA][dL][Dab][Cha]V[Thr(3ξ)]CA-NH2; thioether N-14), the IC50 came to 0.01 µM.
To `CC[C@H](C)[C@@H]1NC(=O)[C@H](Cc2ccc(-c3ccccc3)cc2)NC(=O)[C@H](C(C)C)NC(=O)[C@H](Cc2cccc(C)c2)NC(=O)[C@H](CC(=O)O)NC(=O)[C@H](Cc2ccc(O)cc2)NC(=O)[C@H](CC(N)=O)NC(=O)CSC[C@@H](C(=O)N[C@@H](CCN)C(N)=O)NC(=O)[C@H]([C@@H](C)O)NC(=O)[C@H](C(C)(C)O)NC(=O)[C@H](CC(C)C)NC(=O)[C@H](CCN)NC(=O)[C@@H](CC(C)C)NC(=O)[C@H](C)N(C)C1=O` [Compound 1684] ({CH2CO}-NYD[Phe(3-Me)]V[Bip]I[NMeA][dL][Dab]L[Val(3-OH)]TC[Dab]-NH2; thioether N-14) belongs 0.01 µM.
To `CC(C)C[C@@H]1NC(=O)[C@H](Cc2c[nH]c3ccccc23)NC(=O)[C@H](CC(=O)O)NC(=O)[C@H](Cc2ccc(O)cc2)NC(=O)[C@H](Cc2ccccc2)NC(=O)CSC[C@@H](C(=O)N[C@@H](C)C(N)=O)NC(=O)[C@H]([C@@H](C)O)NC(=O)[C@H](CCCCN)NC(=O)[C@H](CC(C)C)NC(=O)[C@H](CC(N)=O)NC(=O)[C@@H](C)NC(=O)[C@H](C)N(C)C(=O)[C@H](C(C)C)NC(=O)[C@H](Cc2ccc(-c3ccccc3)cc2)NC1=O` [Compound 1766] ({CH2CO}-FYDWL[Bip]V[NMeA][dA]NLKTCA-NH2; thioether N-14) belongs 0.04 µM; to `Cc1cccc(C[C@@H]2NC(=O)[C@H](CC(=O)O)NC(=O)[C@H](Cc3ccc(OCC(=O)O)cc3)NC(=O)[C@H](C(C)O)NC(=O)CSC[C@@H](C(=O)N[C@@H](CO)C(N)=O)NC(=O)[C@H](CO)NC(=O)[C@H](C(C)(C)O)NC(=O)[C@H](CC3CCCCC3)NC(=O)[C@H](CCN)NC(=O)[C@@H](CC(C)C)NC(=O)[C@H](C)N(C)C(=O)[C@H](Cc3ccc(C(=O)O)cc3)NC(=O)[C@H](Cc3ccc(-c4ccccc4)cc3)NC(=O)[C@H](Cc3ccc(C(N)=O)cc3)NC2=O)c1` (stereo partly drawn) [Compound 2181] ({CH2CO}-[Thr(3ξ)]Y(Carboxymethyl)D[Phe(3-Me)][Phe(4-CONH2)][Bip][Phe(4-COOH)][NMeA][dL][Dab][Cha][Val(3-OH)]SCS-NH2; thioether N-14), 0.05 µM.
For the molecule `CC(C)C[C@@H]1NC(=O)[C@H](Cc2c[nH]c3ccccc23)NC(=O)[C@H](CC(=O)O)NC(=O)[C@H](Cc2ccc(O)cc2)NC(=O)[C@H](Cc2ccccc2)NC(=O)CSC[C@@H](C(=O)N[C@@H](C)C(N)=O)NC(=O)[C@H](CO)NC(=O)[C@H](C(C)C)NC(=O)[C@H](CC(C)C)NC(=O)[C@H](CCC(=O)O)NC(=O)[C@@H](C)NC(=O)[C@H](C)N(C)C(=O)[C@H](C(C)C)NC(=O)[C@H](Cc2ccc(-c3ccccc3)cc2)NC1=O` [Compound 1749] ({CH2CO}-FYDWL[Bip]V[NMeA][dA]ELVSCA-NH2; thioether N-14), the IC50 worked out at 0.02 µM.
To `CC(C)C[C@@H]1NC(=O)[C@H](CCCNC(=N)N)NC(=O)[C@H](Cc2cccc3ccccc23)NC(=O)[C@H](C)N(C)C(=O)[C@H](CCCNC(=N)N)NC(=O)[C@H](Cc2ccc(-c3ccccc3)cc2)NC(=O)[C@H](C(C)C)NC(=O)[C@H](Cc2c[nH]c3ccccc23)NC(=O)[C@H](CC(=O)O)NC(=O)[C@H](Cc2ccc(O)cc2)NC(=O)[C@H](Cc2ccccc2)NC(=O)CSC[C@@H](C(=O)NCC(N)=O)NC(=O)[C@H](CO)NC(=O)[C@H](C(C)C)NC1=O` [Compound 1012] ({CH2CO}-FYDWV[Bip]R[NMeA][1Nal]RLVSCG-NH2; thioether N-14) belongs 0.13 µM.
In the case of `CCC[C@@H]1NC(=O)[C@H](CCCNC(=N)N)NC(=O)[C@@H](CC(C)C)NC(=O)[C@H](C)N(C)C(=O)[C@H](CCCNC(=N)N)NC(=O)[C@H](Cc2ccc(-c3ccccc3)cc2)NC(=O)[C@H](C(C)C)NC(=O)[C@H](Cc2c[nH]c3ccccc23)NC(=O)[C@H](CC(=O)O)NC(=O)[C@H](Cc2ccc(O)cc2)NC(=O)[C@H](Cc2ccccc2)NC(=O)CSC[C@@H](C(=O)N[C@@H](C)C(N)=O)NC(=O)[C@H]([C@@H](C)O)NC(=O)[C@H](C(C)C)NC1=O` [Compound 1113] ({CH2CO}-FYDWV[Bip]R[NMeA][dL]R[Nva]VTCA-NH2; thioether N-14), the IC50 turned out to be 0.14 µM.
With `CCC(C)[C@@H]1NC(=O)[C@H](Cc2ccc(-c3ccccc3)cc2)NC(=O)[C@H](C(C)C)NC(=O)[C@H](Cc2cccc(C)c2)NC(=O)[C@H](CC(=O)O)NC(=O)[C@H](Cc2ccc(OCC(=O)O)cc2)NC(=O)[C@H](Cc2ccncc2)NC(=O)CSC[C@@H](C(=O)N[C@@H](CO)C(=O)O)NC(=O)[C@H](CO)NC(=O)[C@H](C(C)C)NC(=O)[C@H](CC2CCCCC2)NC(=O)[C@H](CCN)NC(=O)[C@@H](CC(C)C)NC(=O)[C@H](C)N(C)C1=O` (stereo partly drawn) [Compound 2234] ({CH2CO}-[4Pal]Y(Carboxymethyl)D[Phe(3-Me)]V[Bip][Ile(3ξ)][NMeA][dL][Dab][Cha]VSCS-OH; thioether N-14), the IC50 is 0.02 µM.
In the case of `CC(C)C[C@@H]1NC(=O)[C@H](CCCNC(=N)N)NC(=O)[C@@H](CC(C)C)NC(=O)[C@H](C)N(C)C(=O)[C@H](C(C)C)NC(=O)[C@H](Cc2ccc(-c3ccccc3)cc2)NC(=O)[C@H](C(C)C)NC(=O)[C@H](Cc2cccc(Cl)c2)NC(=O)[C@H](CC(=O)O)NC(=O)[C@H](Cc2ccc(O)cc2)NC(=O)[C@H](CC(N)=O)NC(=O)CSC[C@@H](C(=O)N[C@@H](C)C(N)=O)NC(=O)[C@H]([C@@H](C)O)NC(=O)[C@H](C(C)C)NC1=O` [Compound 1274] ({CH2CO}-NYD[Phe(3-Cl)]V[Bip]V[NMeA][dL]RLVTCA-NH2; thioether N-14), the IC50 was determined as 0.03 µM.
Turning to `Cc1cccc(C[C@@H]2NC(=O)[C@H](CC(=O)O)NC(=O)[C@H](Cc3ccc(C(=O)O)cc3)NC(=O)[C@H](Cc3ccc(OCC(=O)O)cc3)NC(=O)CSC[C@@H](C(N)=O)NC(=O)[C@H](CCCCN)NC(=O)[C@H](C(C)C)NC(=O)[C@H](CC(C)C)NC(=O)[C@H](CC(N)=O)NC(=O)[C@@H](CC(C)C)NC(=O)[C@H](C)N(C)C(=O)[C@H](C(C)C)NC(=O)[C@H](Cc3ccc(-c4ccccc4)cc3)NC(=O)[C@H](CC(C)C)NC2=O)c1` [Compound 2257] ({CH2CO}-Y(Carboxymethyl)[Phe(4-COOH)]D[Phe(3-Me)]L[Bip]V[NMeA][dL]NLVKC-NH2; thioether N-14), the 50% inhibitory concentration (IC50) worked out at 0.06 µM.
As for `CC(C)C[C@@H]1NC(=O)[C@H](CCCN)NC(=O)[C@@H](CC(C)C)NC(=O)[C@H](C)N(C)C(=O)[C@H](CCCNC(N)=O)NC(=O)[C@H](Cc2ccc(-c3ccccc3)cc2)NC(=O)[C@H](C(C)C)NC(=O)[C@H](Cc2c[nH]c3ccccc23)NC(=O)[C@H](CC(=O)O)NC(=O)[C@H](Cc2ccc(O)cc2)NC(=O)[C@H](CC(N)=O)NC(=O)CSC[C@@H](C(=O)N[C@@H](C)C(N)=O)NC(=O)[C@H]([C@@H](C)O)NC(=O)[C@H](C(C)C)NC1=O` [Compound 1234] ({CH2CO}-NYDWV[Bip][Cit][NMeA][dL][Orn]LVTCA-NH2; thioether N-14), the figure is 0.03 µM; as for `CC(C)C[C@@H]1NC(=O)[C@H](Cc2c[nH]c3ccccc23)NC(=O)[C@H](CC(=O)O)NC(=O)[C@H](Cc2ccc(O)c(O)c2)NC(=O)[C@H](Cc2ccccc2)NC(=O)CSC[C@@H](C(=O)N[C@@H](C)C(N)=O)NC(=O)[C@H](CO)NC(=O)[C@H](C(C)C)NC(=O)[C@H](CC(C)C)NC(=O)[C@H](CC(N)=O)NC(=O)[C@@H](C)NC(=O)[C@H](C)N(C)C(=O)[C@H](C(C)C)NC(=O)[C@H](Cc2ccc(-c3ccccc3)cc2)NC1=O` [Compound 1724] ({CH2CO}-F[Dopa]DWL[Bip]V[NMeA][dA]NLVSCA-NH2; thioether N-14), 0.01 µM.
